From PMC7486940, “Pre-symptomatic Caspase-1 inhibitor delays cognitive decline in a mouse model of Alzheimer disease and aging” (Nature Communications, 2020) come the findings set out here.

In experiment [1] the test system is Iba1-positive microglia. As to the kind of experiment: Iba1-positive microglia quantification and morphology (immunohistochemistry). In kind it is in vivo, mouse. As to the method: (§1) VX-765 (Adooq Bioscience, Irvine, CA, USA) was dissolved 5 mg • ml^−1 in 20% cremophor in dH2O[60] (Sigma-Aldrich, ON, Canada) and administered IPWT and J20 mice received three injections per week of either 50 mg • kg^−1 VX-765 or 20% cremophor vehicle for 4 weeks between 2 and 3 months of age. Mice were longitudinally followed starting 4 weeks after the last injection [4-week washout (WO)], then every other month at 12- and 20-week WO (6 and 8 months of age, respectively). Intermediate 8- and 16-week WO periods were also looked at with a smaller number of mice. After each WO period, animals were randomly chosen, independent of behavioural performance, for sacrifice and assigned to either histological or biochemical analysis (Fig. 2a).
Mice for immunohistochemistry were isoflurane anesthetized and perfused with ice-cold 4% paraformaldehyde in 0.1 M PBS (Sigma-Aldrich). Brains were post-fixed overnight in 10% neutral-buffered formalin (ThermoFisher Scientific, ON, Canada) and transferred to 70% ethanol for paraffin embedding and sectioning at 4 μm. Tissue slides underwent heat-induced antigen retrieval with citrate or EDTA buffer. Immunostaining was performed using the Dako Autostainer Plus slide processor and EnVision Flex system (Dako, ON, Canada). Sections were peroxidase treated, blocked in Serum-Free Protein Block, and immunostained with the following antibodies: 1:2000 rabbit anti-Iba1 (Wako, VA, USA), 1:500 rat anti-CD68 (clone FA-11, Bio-Rad, Hercules, CA, USA), 1:8000 rabbit anti-GFAP (Dako) and 1:2000 rabbit anti-Aβ1-40 (F25276, laboratory developed). CD68 antibody required an additional rabbit anti-rat IgG/HRP secondary reagent (Dako) incubation. […] Sections were digitally scanned with MIRAX SCAN (Zeiss, ON, Canada) and used for subsequent analyses.
Iba1-positive microglia were quantified using a modified version of an area-specific counting frame. The number of Iba1-positive cells per mm^3 in the anterior CA1 region and cortex was estimated across four sections, spaced 60 μm apart. Microglial activation level was determined based on morphological measurements[19],[41]. Aβ1-40 and GFAP immunostaining density was measured across four sections using ImageJ software (NIH, Bethesda, MD, USA). Quantification was blinded to treatment and genotype.

Experiment [2] relates to APP. As to the kind of experiment: APP expression and processing (real-time PCR, western blot) in J20 hippocampus. The experiment is classed as in vivo, mouse. The method, then:
as §1
Mice for biochemical analyses were isoflurane anesthetized, sacrificed by cervical dislocation, and the hippocampus and cortex dissected out and immediately frozen on dry ice. Brain tissue was homogenized in radioimmunoprecipitation assay (RIPA) buffer (50 mM Tris-HCl pH: 7.4, 1% NP-40, 0.25% Na-deoxycholate, 150 mM NaCl, 1 mM EDTA, with protease inhibitors), and supernatants placed in Laemmli (5% 2-β mercaptoethanol with protease inhibitors).
Twenty to sixty micrograms of protein or 16 μl of precipitated protein from culture medium were separated on SDS-PAGE or 4–12% NuPAGE Bis-Tris gels (Invitrogen, Carlsbad, CA, USA) with MES buffer (Invitrogen) and transferred onto PVDF membranes (Bio-Rad) according to the manufacturer’s instructions. […] Protein levels were normalized to β-actin and expressed as a percentage relative to the vehicle-treated WT group, except for APP which was compared to the vehicle-treated J20 group. […]
RNA was extracted with Qiazol and purified using the miRNeasy mini kit (Qiagen, CA, USA). RNA quality and quantity were determined using a spectrophotometer (DS-11 FX+, DeNovix, DE, USA) and RNA was reverse transcribed using First Strand cDNA Synthesis Kit (Qiagen) following the manufacturer’s protocol. […]
(In general: Quantitative PCR measures a nucleic acid by following its amplification.)

`CCO[C@@H]1OC(=O)C[C@@H]1NC(=O)[C@@H]1CCCN1C(=O)[C@@H](NC(=O)c1ccc(N)c(Cl)c1)C(C)(C)C` [VX-765, (S)-1-((S)-2-{[1-(4-amino-3-chloro-phenyl)-methanoyl]-amino}-3,3-dimethyl-butanoyl)-pyrrolidine-2-carboxylic acid ((2R,3S)-2-ethoxy-5-oxo-tetrahydro-furan-3-yl)-amide]: in experiment [1] (J20, 20-week WO), the “type III, amoeboid-appearing, microglia” value is “significantly higher in vehicle- and VX-765-treated J20 mice at 20-week WO”. In addition, the “duration of reduced microglial activation” value in experiment [1] (J20 cortex) is on record as no more than 5 months; in experiment [1] (J20 hippocampus), “up to 4 months”. Also, the “microglial morphological profile (type I resting / type II activated)” value in experiment [1] (J20 hippocampus and cortex) was “reverted the profile in J20 mice back to a near WT profile at 4-week WO, but it slowly shifted from a resting to an activated state morphologically similar to vehicle-treated J20 mice from 12-week WO onwards”. Also, in experiment [1] (J20 hippocampus and cortex, all WO periods), the Iba1-positive microglia numbers result was “prevented this increase, normalizing Iba1-positive numbers to near WT levels, although numbers did not reach significance in the hippocampus at 8- and 20-week WO”. Also, in experiment [1] (J20 hippocampus, 20-week WO), the “type IV microglia” value is “elevated in the hippocampus of VX-765-treated J20 mice at 20-week WO”. The “APP protein levels (anti-APP C-terminal antibody)” value in experiment [2] (4- and 20-week WO) was “not affected”. In addition, in experiment [2] (4- or 20-week WO, vehicle vs VX-765), the “βCTF and αCTF levels” value was “no differences in βCTF and αCTF levels”. Also, the “human APP mRNA levels” value in experiment [2] (4-, 12- or 20-week WO) was “did not alter”.
